Consider 16 compounds from US10308643B2, “Heterocyclic compound” (Takeda Pharmaceutical Company Limited, priority 2015, dated 2019).

Structures are written as SMILES.

Holding throughout (assay type): biochemical
For assay [1], the target named is T1, HDAC6 enzyme (Homo sapiens, UniProt Q9UBN7).
T1 construct: transducing full length HDAC1 and HDAC6 genes into Sf-9 insect cells; GST; purchased SignalChem; host or cells: Sf-9 insect cells
T1 sequence (Q9UBN7 1-1215): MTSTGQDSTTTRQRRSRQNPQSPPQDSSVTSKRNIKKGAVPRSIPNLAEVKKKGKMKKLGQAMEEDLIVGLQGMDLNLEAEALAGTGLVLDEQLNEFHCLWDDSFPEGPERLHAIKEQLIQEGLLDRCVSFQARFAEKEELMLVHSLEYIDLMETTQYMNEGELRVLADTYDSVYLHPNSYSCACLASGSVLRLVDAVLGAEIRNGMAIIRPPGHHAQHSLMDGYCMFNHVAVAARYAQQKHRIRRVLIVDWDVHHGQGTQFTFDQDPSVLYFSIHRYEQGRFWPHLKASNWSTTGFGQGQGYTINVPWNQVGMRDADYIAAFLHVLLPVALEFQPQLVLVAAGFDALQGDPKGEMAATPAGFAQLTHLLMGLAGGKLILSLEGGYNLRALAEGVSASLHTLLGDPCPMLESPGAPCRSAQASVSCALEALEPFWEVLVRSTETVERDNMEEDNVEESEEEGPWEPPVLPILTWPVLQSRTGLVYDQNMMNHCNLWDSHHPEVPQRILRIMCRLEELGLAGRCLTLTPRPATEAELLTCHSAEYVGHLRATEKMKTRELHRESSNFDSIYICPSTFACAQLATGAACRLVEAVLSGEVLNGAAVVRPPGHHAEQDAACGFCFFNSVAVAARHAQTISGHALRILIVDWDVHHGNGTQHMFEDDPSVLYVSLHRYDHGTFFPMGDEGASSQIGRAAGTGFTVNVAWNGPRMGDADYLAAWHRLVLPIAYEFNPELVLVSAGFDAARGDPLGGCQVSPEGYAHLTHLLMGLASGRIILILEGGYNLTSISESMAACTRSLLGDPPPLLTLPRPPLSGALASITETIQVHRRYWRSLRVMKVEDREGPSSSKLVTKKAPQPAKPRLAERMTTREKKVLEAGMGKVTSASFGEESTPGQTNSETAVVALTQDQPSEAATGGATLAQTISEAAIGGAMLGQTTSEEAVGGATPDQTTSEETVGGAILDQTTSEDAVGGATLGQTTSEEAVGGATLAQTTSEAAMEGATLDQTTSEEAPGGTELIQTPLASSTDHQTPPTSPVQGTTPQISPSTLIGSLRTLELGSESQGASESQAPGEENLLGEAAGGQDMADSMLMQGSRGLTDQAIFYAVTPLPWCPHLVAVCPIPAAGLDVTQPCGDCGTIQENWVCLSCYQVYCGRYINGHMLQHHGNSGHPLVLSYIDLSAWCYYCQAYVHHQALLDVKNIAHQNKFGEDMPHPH
Kind of assay: HDAC1/6 Enzyme Inhibitory Assay (HDAC-Glo I/II Assay kit), HDAC6. The settings on record: 1 μM test compound, wells without enzyme = 100% inhibition; for inhibition at 1 µM: read-out: HDAC6 inhibitory rate (%) (1 μM). In a few lines: (§1)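 Enzyme source: full-length HDAC1/HDAC6, Sf-9, GST-purified. Assay buffer 24 mM Tris-HCl (pH 7.5), 1 mM MgCl2, 0.35 mM KCl, 135 mM NaCl. Compound–enzyme 60 min RT, then HDAC-Glo reagent 20 min RT, luminescence; inhibition relative to no-enzyme control.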

Assay [2] addresses T2, HDAC1 enzyme (Homo sapiens, UniProt Q13547).
T2 construct: transducing full length HDAC1 and HDAC6 genes into Sf-9 insect cells; GST; purchased SignalChem; host or cells: Sf-9 insect cells
Kind of assay: HDAC1/6 Enzyme Inhibitory Assay (HDAC-Glo I/II Assay kit), HDAC1. The note with it: 1 μM test compound, wells without enzyme = 100% inhibition; for inhibition at 1 µM: read-out: HDAC1 inhibitory rate (%) (1 μM). In a few lines: as §1

Assay [3] deals with T3, HDAC9 enzyme (Homo sapiens, UniProt Q9UKV0).
T3 construct: transducing full length HDAC9 gene into Sf-9 insect cells; made in house; host or cells: Sf-9 insect cells
Kind of assay: HDAC9 Enzyme Inhibitory Assay (HDAC-Glo class IIa). The note with it: 1 μM test compound, wells without enzyme = 100% inhibition; for inhibition at 1 µM: read-out: HDAC9 inhibitory rate (%) (1 μM). In a few lines:
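Full-length human HDAC9 from Sf-9 cells, Ni-NTA purified, preincubated with compound for 60 min at room temperature in Tris-HCl pH 7.5 buffer (MgCl2, KCl, NaCl, glutathione, Tween-20). HDAC-Glo class IIa substrate-developer added; luminescence read after 20 min, with no-enzyme wells defining 100% inhibition.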

T2 sequence (Q13547 whole entry): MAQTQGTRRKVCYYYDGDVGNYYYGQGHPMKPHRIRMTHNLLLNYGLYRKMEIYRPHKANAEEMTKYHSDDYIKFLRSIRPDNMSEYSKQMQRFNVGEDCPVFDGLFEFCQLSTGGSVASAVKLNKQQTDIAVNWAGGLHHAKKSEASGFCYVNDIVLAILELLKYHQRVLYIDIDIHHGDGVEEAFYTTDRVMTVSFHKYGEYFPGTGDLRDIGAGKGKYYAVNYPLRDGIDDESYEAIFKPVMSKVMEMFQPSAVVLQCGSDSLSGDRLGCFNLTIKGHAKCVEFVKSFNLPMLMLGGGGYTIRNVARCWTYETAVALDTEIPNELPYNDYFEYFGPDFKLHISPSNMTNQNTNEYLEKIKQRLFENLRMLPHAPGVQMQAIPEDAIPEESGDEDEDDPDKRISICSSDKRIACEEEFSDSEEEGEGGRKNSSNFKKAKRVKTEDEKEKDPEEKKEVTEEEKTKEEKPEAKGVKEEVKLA
T3 sequence (Q9UKV0 whole entry, species assumed): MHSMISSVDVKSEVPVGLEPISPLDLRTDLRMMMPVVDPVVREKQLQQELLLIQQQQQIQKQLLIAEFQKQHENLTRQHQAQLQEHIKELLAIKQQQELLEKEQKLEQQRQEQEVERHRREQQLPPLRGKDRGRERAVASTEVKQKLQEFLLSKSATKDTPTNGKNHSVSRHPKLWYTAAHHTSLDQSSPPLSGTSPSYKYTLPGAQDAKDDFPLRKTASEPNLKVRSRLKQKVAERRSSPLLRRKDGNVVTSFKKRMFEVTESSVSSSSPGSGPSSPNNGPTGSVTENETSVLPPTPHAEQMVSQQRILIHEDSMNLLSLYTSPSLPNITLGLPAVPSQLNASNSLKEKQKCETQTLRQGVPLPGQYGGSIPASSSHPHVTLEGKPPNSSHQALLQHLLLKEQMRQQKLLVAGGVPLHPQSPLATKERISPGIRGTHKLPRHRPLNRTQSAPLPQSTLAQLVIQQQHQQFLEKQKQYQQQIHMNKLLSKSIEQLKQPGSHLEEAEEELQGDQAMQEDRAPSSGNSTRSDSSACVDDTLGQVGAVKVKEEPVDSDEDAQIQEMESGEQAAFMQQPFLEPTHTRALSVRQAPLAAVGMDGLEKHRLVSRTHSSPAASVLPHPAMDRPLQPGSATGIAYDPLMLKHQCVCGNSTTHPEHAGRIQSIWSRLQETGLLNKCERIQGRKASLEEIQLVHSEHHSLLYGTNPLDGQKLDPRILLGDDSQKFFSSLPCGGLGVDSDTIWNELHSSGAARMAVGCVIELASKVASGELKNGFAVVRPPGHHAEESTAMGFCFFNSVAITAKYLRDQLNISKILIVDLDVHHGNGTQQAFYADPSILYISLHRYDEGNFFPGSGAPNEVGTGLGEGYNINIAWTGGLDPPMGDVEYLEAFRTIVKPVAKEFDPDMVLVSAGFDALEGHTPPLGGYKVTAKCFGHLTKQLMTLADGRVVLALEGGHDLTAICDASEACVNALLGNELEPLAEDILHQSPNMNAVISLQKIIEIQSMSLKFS

On to `O=C1CCCN1[C@@H]1CCOC[C@H]1N1Cc2ccc(-c3noc(C(F)(F)F)n3)cc2C1=O` [Example 183, 2-((3S,4R)-4-(2-oxopyrrolidin-1-yl)tetrahydro-2H-pyran-3-yl)-6-(5-(trifluoromethyl)-1,2,4-oxadiazol-3-yl)isoindolin-1-one], for which the “HDAC6 inhibitory rate (%) (1 μM)” value in assay [1] (1 µM) is listed as 77%. In addition, the “HDAC1 inhibitory rate (%) (1 μM)” value in assay [2] (1 µM) was found to be 1%. The “HDAC9 inhibitory rate (%) (1 μM)” value in assay [3] (1 µM) came out at 47%.

Take `CC1(C(=O)N[C@@H]2CCCC[C@H]2N2Cc3ccc(-c4noc(C(F)(F)F)n4)cc3C2=O)CCC1` [Example 174, 1-methyl-N-((1R,2R)-2-(1-oxo-6-(5-(trifluoromethyl)-1,2,4-oxadiazol-3-yl)-1,3-dihydro-2H-isoindol-2-yl)cyclohexyl)cyclobutanecarboxamide]: the inhibition at 1 µM turned out to be 90% in assay [1], 8% in assay [2] and 60% in assay [3].

With `CC(CO)(CCl)C(=O)N[C@@H]1CCCC[C@H]1N1Cc2ccc(-c3noc(C(F)(F)F)n3)cc2C1=O` (relative stereo) [Example 203, 3-chloro-2-(hydroxymethyl)-2-methyl-N-(trans-2-(1-oxo-6-(5-(trifluoromethyl)-1,2,4-oxadiazol-3-yl)-1,3-dihydro-2H-isoindol-2-yl)cyclohexyl)propanamide], the results for the inhibition at 1 µM in assay [1], in assay [2] and in assay [3] were 100%, 8% and 69%, respectively.

For the compound `O=C(N[C@@H]1CCCC[C@H]1N1Cc2ccc(-c3noc(C(F)(F)F)n3)cc2C1=O)N1CCC(F)(F)C1` [Example 169, 3,3-difluoro-N-((1R,2R)-2-(1-oxo-6-(5-(trifluoromethyl)-1,2,4-oxadiazol-3-yl)-1,3-dihydro-2H-isoindol-2-yl)cyclohexyl)pyrrolidine-1-carboxamide], the inhibition at 1 µM in assay [1] is 98%; in assay [2], 10%; in assay [3], 40%.

As to `O=C(c1ccccc1)N1CCC(N2Cc3ncc(-c4noc(C(F)(F)F)n4)cc3C2=O)CC1` [Example 67, 6-(1-benzoylpiperidin-4-yl)-3-(5-(trifluoromethyl)-1,2,4-oxadiazol-3-yl)-6,7-dihydro-5H-pyrrolo[3,4-b]pyridin-5-one], the inhibition at 1 µM in assay [1] was found to be 99%; in assay [2], 13%; in assay [3], 81%.

As to `O=C1c2cc(-c3noc(C(F)(F)F)n3)ccc2CN1[C@H]1CCc2ccccc21` [Example 24, 2-((1S)-2,3-dihydro-1H-inden-1-yl)-6-(5-(trifluoromethyl)-1,2,4-oxadiazol-3-yl)isoindolin-1-one], the inhibition at 1 µM in assay [1] was determined as 95%; in assay [2], 6%; in assay [3], 52%.

`O=C(N[C@@H]1CCCC[C@H]1N1Cc2ccc(-c3noc(C(F)(F)F)n3)cc2C1=O)c1cocn1` [Example 103, N-((1R,2R)-2-(1-oxo-6-(5-(trifluoromethyl)-1,2,4-oxadiazol-3-yl)-1,3-dihydro-2H-isoindol-2-yl)cyclohexyl)-1,3-oxazole-4-carboxamide]: the inhibition at 1 µM in assay [1] came to 102%; in assay [2] it was 14%; in assay [3] it was 55%.

As for `O=C1c2cc(-c3noc(C(F)(F)F)n3)ccc2CN1[C@@H]1CCNC[C@H]1c1ccc(F)c(Cl)c1` (relative stereo) [Example 54, 2-(trans-3-(3-chloro-4-fluorophenyl)piperidin-4-yl)-6-(5-(trifluoromethyl)-1,2,4-oxadiazol-3-yl)isoindolin-1-one], the inhibition at 1 µM is 100% in assay [1], 93% in assay [2] and 99% in assay [3].

For `O=C(N[C@@H]1CCCC[C@H]1N1Cc2ccc(-c3noc(C(F)(F)F)n3)cc2C1=O)N1C2CCC1COC2` [Example 145, N-((1R,2R)-2-(1-oxo-6-(5-(trifluoromethyl)-1,2,4-oxadiazol-3-yl)-1,3-dihydro-2H-isoindol-2-yl)cyclohexyl)-3-oxa-8-azabicyclo[3.2.1]octane-8-carboxamide], the inhibition at 1 µM in assay [1] is 98%; in assay [2] it was 0%; in assay [3], 35%.

As for `O=C1c2cc(-c3noc(C(F)(F)F)n3)ccc2CN1[C@@H]1CCCC[C@H]1NS(=O)(=O)C1CC1` [Example 89, N-((1R,2R)-2-(1-oxo-6-(5-(trifluoromethyl)-1,2,4-oxadiazol-3-yl)-1,3-dihydro-2H-isoindol-2-yl)cyclohexyl) cyclopropanesulfonamide], the inhibition at 1 µM in assay [1] came to 98%; in assay [2], 37%; in assay [3], 85%.

Turning to `Cc1cc(F)ccc1[C@@H]1CNCC[C@H]1N1Cc2ccc(-c3noc(C(F)(F)F)n3)cc2C1=O` (relative stereo) [Example 50, 2-(trans-3-(4-fluoro-2-methylphenyl)piperidin-4-yl)-6-(5-(trifluoromethyl)-1,2,4-oxadiazol-3-yl)isoindolin-1-one], the inhibition at 1 µM was determined as 98% in assay [1], 93% in assay [2] and 99% in assay [3].

On to `CC(=O)N1CC[C@@H](N2Cc3ccc(-c4noc(C(F)(F)F)n4)cc3C2=O)[C@H](c2ccccc2)C1` [Example 20, 2-((3R,4R)-1-acetyl-3-phenylpiperidin-4-yl)-6-(5-(trifluoromethyl)-1,2,4-oxadiazol-3-yl)isoindolin-1-one], for which the inhibition at 1 µM in assay [1] worked out at 98%; in assay [2], 87%; in assay [3] it was 96%.

`CC1(C(=O)N[C@@H]2CCC(F)(F)C[C@H]2N2Cc3ccc(-c4noc(C(F)(F)F)n4)cc3C2=O)COC1` [Example 87, N-((1R,2R)-4,4-difluoro-2-(1-oxo-6-(5-(trifluoromethyl)-1,2,4-oxadiazol-3-yl)-1,3-dihydro-2H-isoindol-2-yl)cyclohexyl)-3-methyloxetane-3-carboxamide]: the inhibition at 1 µM in assay [1] stood at 99%; in assay [2], 1%; in assay [3] it was 45%.

With `O=C1c2cc(-c3noc(C(F)(F)F)n3)ccc2CN1[C@H]1CCCC[C@@H]1N1CCOCC1` (relative stereo) [Example 59, 2-(trans-2-(morpholin-4-yl)cyclohexyl)-6-(5-(trifluoromethyl)-1,2,4-oxadiazol-3-yl)isoindolin-1-one], the inhibition at 1 µM was determined as 97% in assay [1], 60% in assay [2] and 91% in assay [3].

For `CC(C)(O)C(=O)N[C@@H]1CCCC[C@H]1N1Cc2ccc(-c3noc(C(F)(F)F)n3)cc2C1=O` [Example 95, 2-hydroxy-2-methyl-N-((1R,2R)-2-(1-oxo-6-(5-(trifluoromethyl)-1,2,4-oxadiazol-3-yl)-1,3-dihydro-2H-isoindol-2-yl)cyclohexyl)propanamide], the figures for the inhibition at 1 µM in assay [1], in assay [2] and in assay [3] were 100%, 3% and 37%, respectively.

Take `O=C(N[C@@H]1CCCC[C@H]1N1Cc2ccc(-c3noc(C(F)(F)F)n3)cc2C1=O)N1CCC1` [Example 159, N-((1R,2R)-2-(1-oxo-6-(5-(trifluoromethyl)-1,2,4-oxadiazol-3-yl)-1,3-dihydro-2H-isoindol-2-yl)cyclohexyl)azetidine-1-carboxamide]: the values for the inhibition at 1 µM in assay [1], in assay [2] and in assay [3] were 98%, 5% and 39%, respectively.
